Calls of active or inactive are those of the source.
Columns and labels:
[1] = target: NACHT, LRR and PYD domains-containing protein 1 (Homo sapiens, UniProt Q9C000); assay: NALP1 inhibitors in yeast, dose response, luminescent (AID 488860); assay type: functional
Saccharomyces cerevisiae = assay: NALP1 inhibitor project selectivity study, Caspase-1/ASC signal blockade IC50 in S. cerevisiae (AID 488863); assay type: functional, organism-based
Troponin, cardiac muscle = Troponin, cardiac muscle (Homo sapiens, UniProt P19429+P45379+P63316); assay: Fluorescence-based biochemical high throughput dose response assay for activators of the calcium sensitivity of cardiac Regulated Thin Filaments (RTF). [Related pubchem assays (depositor defined):AID493008, AID493018, AID504382, AID504383]; assay type: protein-complex assay
[2] = target: T1, Delta-type opioid receptor (Homo sapiens, UniProt P41143); assay: HTS Image-Based Screen for Agonists of the DOR Receptor. [Related pubchem assays (depositor defined):AID1777, AID1786, AID2133]; assay type: functional
T1 sequence (P41143 whole entry): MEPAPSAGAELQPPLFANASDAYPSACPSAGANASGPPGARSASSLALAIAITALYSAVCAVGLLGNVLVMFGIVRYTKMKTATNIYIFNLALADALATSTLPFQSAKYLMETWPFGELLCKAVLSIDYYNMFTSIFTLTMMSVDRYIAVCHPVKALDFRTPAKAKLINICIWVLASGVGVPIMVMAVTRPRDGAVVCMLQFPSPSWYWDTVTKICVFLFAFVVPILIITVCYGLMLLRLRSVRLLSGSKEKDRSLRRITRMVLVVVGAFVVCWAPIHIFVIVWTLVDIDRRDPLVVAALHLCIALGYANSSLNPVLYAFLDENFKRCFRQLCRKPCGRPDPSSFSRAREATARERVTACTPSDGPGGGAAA

[3] = inhibitors of firefly luciferase expression or activity, dose response, H4 neuroglioma cells, luminescence (AID 1990); assay type: functional, cell-based
[4] = inhibitors of SNCA 5'UTR-driven reporter translation, confirmation, H4 neuroglioma cells, luminescence (AID 1988); assay type: functional, cell-based
Vero = assay: host cell cytotoxicity of antiviral hits, dose response, cytotoxicity control for West Nile virus antiviral project, secondary assay (AID 1650); assay type: functional; conditions: Chlorocebus sabaeus
[5] = target: T1, Delta-type opioid receptor; assay: HTS Image-Based Screen for Antagonists of the DOR Receptor. [Related pubchem assays (depositor defined):AID1777, AID1785, AID1786, AID2133]; assay type: functional
[6] = target: T2, Kappa-type opioid receptor (Homo sapiens, UniProt P41145); assay type: functional
T2 sequence (P41145 whole entry): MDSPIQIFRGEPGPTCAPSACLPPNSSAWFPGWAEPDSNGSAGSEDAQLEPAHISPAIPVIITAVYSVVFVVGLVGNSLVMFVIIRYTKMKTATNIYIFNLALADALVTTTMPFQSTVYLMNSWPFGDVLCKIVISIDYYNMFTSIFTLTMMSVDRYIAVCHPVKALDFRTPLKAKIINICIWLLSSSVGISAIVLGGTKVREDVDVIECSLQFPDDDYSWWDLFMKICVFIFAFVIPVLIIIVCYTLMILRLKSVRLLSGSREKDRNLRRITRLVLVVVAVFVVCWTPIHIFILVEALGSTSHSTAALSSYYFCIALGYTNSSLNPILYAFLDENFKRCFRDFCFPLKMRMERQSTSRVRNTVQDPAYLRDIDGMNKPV

[7] = target: T2, Kappa-type opioid receptor; assay type: functional; remark: listed apart in the source
[8] = target: E3 ubiquitin-protein ligase Mdm2/Protein Mdm4 (Homo sapiens, UniProt O15151+Q00987); assay: Mdm2-MdmX interaction inhibitors, dose response, luminescence detection (AID 504593); assay type: functional
[9] = Luminescence Cell-Based Dose Response HTS to Identify Inhibitors of 5'UTR Stem-Loop Driven Prion Protein mRNA Translation in H4 Neuroglioblastoma Cells. [Related pubchem assays: 1827 (Project Summary), 1813 (Primary HTS)]; assay type: functional
Beta-galactosidase = Beta-galactosidase (Escherichia coli, UniProt Q8VNN2); assay type: functional
Sequence of Beta-galactosidase (Q8VNN2 whole entry): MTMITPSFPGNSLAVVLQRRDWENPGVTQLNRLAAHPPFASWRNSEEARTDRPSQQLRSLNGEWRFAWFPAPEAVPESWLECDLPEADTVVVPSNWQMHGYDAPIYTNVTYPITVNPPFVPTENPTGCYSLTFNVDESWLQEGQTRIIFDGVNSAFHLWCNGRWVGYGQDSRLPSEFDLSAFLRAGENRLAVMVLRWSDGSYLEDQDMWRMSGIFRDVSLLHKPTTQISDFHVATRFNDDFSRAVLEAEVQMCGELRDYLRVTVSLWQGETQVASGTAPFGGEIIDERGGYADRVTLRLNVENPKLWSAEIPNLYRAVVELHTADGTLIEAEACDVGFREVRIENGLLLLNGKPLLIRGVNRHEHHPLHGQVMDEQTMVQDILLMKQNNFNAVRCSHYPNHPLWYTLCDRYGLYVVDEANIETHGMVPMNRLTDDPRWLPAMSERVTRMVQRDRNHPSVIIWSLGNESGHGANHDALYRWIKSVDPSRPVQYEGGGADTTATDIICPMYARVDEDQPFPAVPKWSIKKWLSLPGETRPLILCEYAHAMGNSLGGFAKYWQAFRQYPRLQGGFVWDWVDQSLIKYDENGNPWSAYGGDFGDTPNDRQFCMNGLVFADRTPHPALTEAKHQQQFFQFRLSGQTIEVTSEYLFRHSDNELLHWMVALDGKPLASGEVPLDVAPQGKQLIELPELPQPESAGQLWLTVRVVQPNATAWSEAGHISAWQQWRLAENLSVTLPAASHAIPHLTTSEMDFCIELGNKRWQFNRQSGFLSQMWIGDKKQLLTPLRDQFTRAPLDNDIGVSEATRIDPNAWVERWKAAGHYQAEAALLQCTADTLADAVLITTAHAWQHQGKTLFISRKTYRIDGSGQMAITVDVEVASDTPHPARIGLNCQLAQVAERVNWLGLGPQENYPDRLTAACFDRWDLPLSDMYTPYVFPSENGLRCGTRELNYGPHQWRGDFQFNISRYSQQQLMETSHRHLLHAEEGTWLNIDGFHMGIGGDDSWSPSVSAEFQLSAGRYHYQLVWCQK

Mu-type opioid receptor [10] = target: T3, Mu-type opioid receptor (Homo sapiens, UniProt P35372); assay: HTS Image-Based Screen for Agonists of the MOR Receptor. [Related pubchem assays (depositor defined):AID1777, AID1785, AID1786, AID2133]; assay type: functional
T3 sequence (P35372 whole entry): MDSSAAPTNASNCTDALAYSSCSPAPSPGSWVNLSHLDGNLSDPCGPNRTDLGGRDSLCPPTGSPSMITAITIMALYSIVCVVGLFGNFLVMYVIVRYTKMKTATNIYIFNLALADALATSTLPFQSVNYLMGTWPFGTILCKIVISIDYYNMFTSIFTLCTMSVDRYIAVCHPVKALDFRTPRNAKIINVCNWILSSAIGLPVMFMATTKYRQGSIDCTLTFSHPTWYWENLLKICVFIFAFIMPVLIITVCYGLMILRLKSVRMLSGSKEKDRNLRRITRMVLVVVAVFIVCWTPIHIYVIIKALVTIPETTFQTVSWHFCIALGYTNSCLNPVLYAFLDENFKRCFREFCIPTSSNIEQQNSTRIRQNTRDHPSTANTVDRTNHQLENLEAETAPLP

T-cell = assay: inhibitors of CD8+ T cell–vesicle binding, dose response, mouse 2C CD8+ T cells, flow cytometry (AID 485284); assay type: functional
[11] = target: T2, Kappa-type opioid receptor; assay: SAR analysis of small molecule antagonists of the kappa opioid receptor via a luminescent beta-arrestin assay - Set 6. [Related pubchem assays (depositor defined):AID1777, AID1778, AID1785, AID1786, AID1966, AID2133, AID2136, AID2285]; assay type: functional
[12] = target: T1, Delta-type opioid receptor; assay: SAR Analysis of Antagonists of the DOR Receptor using an Image-Based Assay - Set 3. [Related pubchem assays (depositor defined):AID1777, AID1785]; assay type: functional
Mu-type opioid receptor [13] = target: T3, Mu-type opioid receptor; assay: SAR Analysis of Antagonists of the MOR Receptor using an Image-Based Assay - Set 3. [Related pubchem assays (depositor defined):AID1777, AID1785, AID1786, AID1966, AID2133, AID2136, AID2284, AID2285, AID2420]; assay type: functional
[14] = target: T2, Kappa-type opioid receptor; assay: SAR analysis of Antagonists of the Kappa Opioid Receptor (KOR) using an Image-Based Assay - Set 4. [Related pubchem assays (depositor defined):AID1777, AID1785]; assay type: functional
[15] = target: T2, Kappa-type opioid receptor; assay: SAR analysis of small molecule antagonists of the kappa opioid receptor via a luminescent beta-arrestin assay - Set 4. [Related pubchem assays (depositor defined):AID1777, AID1778, AID1785, AID1786, AID1966, AID2133, AID2136, AID2285]; assay type: functional
[16] = target: T4, E3 ubiquitin-protein ligase XIAP (Homo sapiens, UniProt P98170); assay: XIAP antagonists, biochemical, IAP family, fluorescence polarization (AID 1018); assay type: functional
T4 sequence (P98170 whole entry): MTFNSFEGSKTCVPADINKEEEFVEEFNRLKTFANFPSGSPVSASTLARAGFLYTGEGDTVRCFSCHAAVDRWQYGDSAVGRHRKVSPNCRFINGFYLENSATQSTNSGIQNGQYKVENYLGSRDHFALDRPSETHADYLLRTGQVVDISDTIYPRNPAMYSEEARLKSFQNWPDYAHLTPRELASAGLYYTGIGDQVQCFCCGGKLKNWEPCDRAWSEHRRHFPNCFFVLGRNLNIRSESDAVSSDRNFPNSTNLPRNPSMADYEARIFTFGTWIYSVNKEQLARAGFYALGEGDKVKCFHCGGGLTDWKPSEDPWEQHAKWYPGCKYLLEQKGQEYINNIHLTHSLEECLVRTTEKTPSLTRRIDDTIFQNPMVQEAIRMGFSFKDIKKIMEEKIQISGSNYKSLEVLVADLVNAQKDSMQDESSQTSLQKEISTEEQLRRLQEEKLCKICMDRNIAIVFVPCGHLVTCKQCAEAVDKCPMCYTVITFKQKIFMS

[17] = target: T4, E3 ubiquitin-protein ligase XIAP; assay: Counter Screen using XIAP-Bir3 for Chemical Antagonists of Bir1/2 domains of IAP-family anti-apoptotic proteins. [Related pubchem assays (depositor defined):AID1018, AID1449, AID1514, AID1638, AID1749, AID1750, AID488957, AID488963]

Sequence of NACHT, LRR and PYD domains-containing protein 1 (Q9C000 1-1212 limits assumed): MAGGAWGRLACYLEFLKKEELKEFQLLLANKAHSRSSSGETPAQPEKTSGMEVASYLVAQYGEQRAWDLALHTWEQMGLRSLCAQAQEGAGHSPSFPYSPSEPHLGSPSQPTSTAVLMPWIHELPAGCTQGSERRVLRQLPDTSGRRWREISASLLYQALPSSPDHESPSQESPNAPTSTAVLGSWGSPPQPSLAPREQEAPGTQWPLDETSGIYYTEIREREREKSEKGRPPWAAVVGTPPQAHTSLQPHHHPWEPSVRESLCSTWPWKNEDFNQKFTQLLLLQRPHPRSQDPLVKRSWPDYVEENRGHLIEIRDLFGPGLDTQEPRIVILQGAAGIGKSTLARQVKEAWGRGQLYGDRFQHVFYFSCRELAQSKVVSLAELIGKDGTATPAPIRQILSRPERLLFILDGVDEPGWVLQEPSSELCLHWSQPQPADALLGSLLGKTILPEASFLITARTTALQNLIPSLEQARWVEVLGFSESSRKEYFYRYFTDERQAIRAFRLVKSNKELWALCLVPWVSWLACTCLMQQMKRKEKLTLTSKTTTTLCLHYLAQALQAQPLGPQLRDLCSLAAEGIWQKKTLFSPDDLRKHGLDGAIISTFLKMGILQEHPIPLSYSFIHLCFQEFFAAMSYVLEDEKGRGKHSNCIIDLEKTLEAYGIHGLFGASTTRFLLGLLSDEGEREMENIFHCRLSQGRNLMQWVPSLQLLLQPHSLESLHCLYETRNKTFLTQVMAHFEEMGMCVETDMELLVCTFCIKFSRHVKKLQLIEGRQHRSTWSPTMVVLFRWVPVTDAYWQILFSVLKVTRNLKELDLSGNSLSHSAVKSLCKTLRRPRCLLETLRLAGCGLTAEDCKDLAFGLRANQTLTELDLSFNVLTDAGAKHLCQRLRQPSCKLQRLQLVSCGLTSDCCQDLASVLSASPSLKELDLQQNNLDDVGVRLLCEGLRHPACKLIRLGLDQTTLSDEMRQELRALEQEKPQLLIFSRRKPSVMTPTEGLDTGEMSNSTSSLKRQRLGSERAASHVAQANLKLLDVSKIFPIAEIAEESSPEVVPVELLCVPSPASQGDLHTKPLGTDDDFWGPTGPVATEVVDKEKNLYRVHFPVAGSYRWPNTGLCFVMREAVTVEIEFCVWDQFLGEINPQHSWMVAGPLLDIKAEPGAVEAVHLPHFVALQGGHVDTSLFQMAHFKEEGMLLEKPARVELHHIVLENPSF
Sequence of NACHT, LRR and PYD domains-containing protein 1 (Q9C000 1213-1473 limits assumed): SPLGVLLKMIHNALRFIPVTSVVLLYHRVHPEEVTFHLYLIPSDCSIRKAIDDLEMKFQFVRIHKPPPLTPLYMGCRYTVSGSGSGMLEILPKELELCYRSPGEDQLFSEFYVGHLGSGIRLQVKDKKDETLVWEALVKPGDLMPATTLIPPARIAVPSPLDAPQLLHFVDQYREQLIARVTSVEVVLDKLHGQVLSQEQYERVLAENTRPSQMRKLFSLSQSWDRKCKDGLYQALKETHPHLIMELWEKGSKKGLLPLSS

## COc1ccccc1N1CCN(CCCCCCOc2ccc(F)cc2)CC1
[1]
  IC50: 9.66 µM (active)
Saccharomyces cerevisiae
  IC50: 13.2 µM (active)

## O=C(c1ccc(COc2ccccc2Br)o1)N1N=C(C(F)F)CC1(O)C(F)F (configuration not stated)
Troponin, cardiac muscle
  EC50: > 71.5 µM (inactive)

## O=[N+]([O-])c1ccccc1S(=O)(=O)Nc1cccc2cccnc12
[2]
  EC50: > 32 µM (inactive)
[3]
  EC50: 14.1 µM (active)
[4]
  EC50: > 120 µM (not active)
Vero
  CC50: 8.6 µM (active)
[5]
  IC50: > 32 µM (inactive)
[6]
  IC50: > 32 µM
[7]
  IC50: 7.84 µM (active)
[8]
  IC50: 3.73 µM (active)
[9]
  EC50: 11.6 µM (active)
Beta-galactosidase
  EC50: > 31.5 µM (inactive)
Mu-type opioid receptor [10]
  EC50: > 32 µM (inactive)

## Cc1ccc(O)c(CCc2ccccc2)n1
T-cell
  EC50: 9.49 µM (active)

## CC(C)N(CCNC(=O)c1ccc(CNS(=O)(=O)c2ccc3ccccc3c2)cc1)Cc1ccccc1
[11]
  IC50: 5.52 µM (active)
[12]
  IC50: 31.3 µM (inactive)
Mu-type opioid receptor [13]
  IC50: > 32 µM (inactive)
[14]
  IC50: 0.16 µM (active)
[15]
  IC50: 2.33 µM (active)

## CCOc1ccc2cc(C(=O)c3ccccc3)c(=O)oc2c1
[16]
  IC50: > 100 µM (not active)
[17]
  IC50: > 100 µM (inactive)

— ChEMBL document CHEMBL1201862, “PubChem BioAssay data set” (2004)
